Read-outs that look alike come from different tables or passages of the source.
Tests used:
[1] = system: A549 (lung carcinoma); assay: CIMA assay (colorimetric indicator of metabolic activity), cell viability, A549; settings: for Fold change in viability AVG / In vitro activity against cancer cell lines, A549 AVG: A549
[2] = system: THP-1 (acute monocytic leukemia); assay: CIMA assay, cell viability, THP-1; settings: for Fold change in viability AVG / In vitro activity against cancer cell lines, THP-1 AVG: THP-1
[3] = system: U373 (glioblastoma-astrocytoma); assay: CIMA assay, cell viability, U373; settings: for Fold change in viability AVG / In vitro activity against cancer cell lines, U373 AVG: U373
Method: (§1) Stock solutions of the extracts were prepared in dimethylsulfoxide (DMSO) at 10 mg/mL and stored in 200 μl aliquots at −20° C. until analysis. This preparation ensured that the DMSO delivered to cells in culture never exceeded 1%.
(§2) Prepared extracts were assessed following chronic exposure conditions in which cells were seeded at 2×10^3 cells/well (96 well-plate) and incubated with test compounds for 72 h. Each compound was evaluated over a range of concentrations (0, 10, 25, 50 or 100 μg/ml). Cell proliferation was initially assessed using a standard colorimetric indicator of metabolic activity (CIMA) assay. In this assay, tetrazole reduction was evaluated as a measure of metabolic function that evaluates mitochondrial activity to determine the extent of cell proliferation within a culture. This assay is based on the reduction of yellow tetrazolium salt to purple formazan by mitochondrial reductases enzyme in viable cells, resulting in a color changed that confers a change in absorbance.

[4] = system: SKOV3 (ovarian adenocarcinoma); assay: CIMA assay, cell viability, SKOV3; settings: for Fold change in viability AVG / In vitro activity against cancer cell lines, SKOV AVG: SKOV
Method: as §1, §2

[5] = system: MDA-MB; settings: MDA-MB
[6] = system: PC3; assay: CIMA assay, cell viability, PC3; settings: for Fold change in viability AVG / In vitro activity against cancer cell lines, PC3 AVG: PC3
[7] = system: CCD1079SK (fibroblast, noncancerous but proliferating); assay: CIMA assay, cell viability, CCD1079SK; settings: CCD
Method: as §1, §2

[8] = CIMA assay, cell viability, CCD1079SK; settings: human, CCD1079SK fibroblasts (noncancerous, proliferating), Average cell viability, CCD
Method: as §1, §2

[9] = system: MDA-MB; assay: cells; settings: Homo sapiens, read-out: Average cell viability, MDA-MB; for viability at 100 µg/mL: 100 ug/mL
[10] = Homo sapiens, A549, read-out: Average cell viability, A549, 100 ug/mL
[11] = Homo sapiens, THP-1, read-out: Average cell viability, THP-1, 100 ug/mL
[12] = Homo sapiens, U373 MG, read-out: Average cell viability, U373, 100 ug/mL
[13] = Homo sapiens, SK-OV-3, read-out: Average cell viability, SKOV, 100 ug/mL
[14] = Homo sapiens, PC-3, read-out: Average cell viability, PC3, 100 ug/mL

For `CCCCCC(O)/C=C/C=C/CCCCCCCC(=O)O` (stereo not drawn) [77-31-34-6 A, 13-hydroxyoctadeca-9E,11E-dienoic acid], the “Fold change in viability AVG” value ([1]; 1.00 ug/mL (so in the source)) was 0.08, the “In vitro activity against cancer cell lines, A549 AVG” value (shortened to “In vitro activity … A549 AVG”) ([1]; 100 ug/mL) was 0.08 and the viability at 100 µg/mL [1, 10] was 7%. The viability at 100 µg/mL [2, 11] was 6%, the “Fold change in viability AVG” value ([2]; 1.00 ug/mL (so in the source)) was 0.07 and the “In vitro activity against cancer cell lines, THP-1 AVG” value (“In vitro activity … THP-1 AVG” below) ([2]; 100 ug/mL) was 0.07. The viability at 100 µg/mL [3, 12] was 4%, the “Fold change in viability AVG” value ([3]; 1.00 ug/mL (so in the source)) was 0.04 and the “In vitro activity against cancer cell lines, U373 AVG” value (shortened to “In vitro activity … U373 AVG”) ([3]; 100 ug/mL) was 0.04. For the same molecule, the viability at 100 µg/mL [4, 13] was 53%, the “Fold change in viability AVG” value ([4]; 1.00 ug/mL (so in the source)) was 0.57 and the “In vitro activity against cancer cell lines, SKOV AVG” value (“In vitro activity … SKOV AVG” below) ([4]; 100 ug/mL) was 0.57. For the same molecule, the “Fold change in viability AVG” value ([5]; 1.00 ug/mL (so in the source)) was 0.13, the “In vitro activity against cancer cell lines, MDA-MB AVG” value (from here on “In vitro activity … MDA-MB AVG”) ([5]; 100 ug/mL) was 0.13 and the viability at 100 µg/mL [6, 14] was 5%. The “Fold change in viability AVG” value ([6]; 1.00 ug/mL (so in the source)) was 0.05, the “In vitro activity against cancer cell lines, PC3 AVG” value (“In vitro activity … PC3 AVG” for short) ([6]; 100 ug/mL) was 0.05 and the “Fold change in viability AVG” value ([7]; 1.00 ug/mL (so in the source)) was 0.14. The viability at 72 h, 100 ug/mL [8] was 13% and the viability at 100 µg/mL [9] was 12%.

With `CCCCCCCCCCCCCCCC(=O)OCC(O)CO` (stereo not drawn) [77-38-41-1 B, MAG (C16:0)] the “Fold change in viability AVG” value ([1]; 50 ug/mL) was 0.81, the “In vitro activity … A549 AVG” value ([1]; 50 ug/mL) was 0.81 and the “Fold change in viability AVG” value ([1]; 100 ug/mL) was 0.30. For the same molecule, the “In vitro activity … A549 AVG” value ([1]; 100 ug/mL) was 0.30, the viability at 50 µg/mL ([1]; Homo sapiens, A549, read-out: Average cell viability, A549, 50 ug/mL) was 69% and the viability at 100 µg/mL [1, 10] was 26%. For the same molecule, the viability at 50 µg/mL ([2]; Homo sapiens, THP-1, read-out: Average cell viability, THP-1, 50 ug/mL) was 96%, the viability at 100 µg/mL [2, 11] was 105% and the “Fold change in viability AVG” value ([2]; 50 ug/mL) was 1.10. The “In vitro activity … THP-1 AVG” value ([2]; 50 ug/mL) was 1.10, the “Fold change in viability AVG” value ([2]; 100 ug/mL) was 1.19 and the “In vitro activity … THP-1 AVG” value ([2]; 100 ug/mL) was 1.19. The viability at 50 µg/mL ([3]; Homo sapiens, U373 MG, read-out: Average cell viability, U373, 50 ug/mL) was 13%, the viability at 100 µg/mL [3, 12] was 7% and the “Fold change in viability AVG” value ([3]; 50 ug/mL) was 0.13. For the same molecule, the “In vitro activity … U373 AVG” value ([3]; 50 ug/mL) was 0.13, the “Fold change in viability AVG” value ([3]; 100 ug/mL) was 0.07 and the “In vitro activity … U373 AVG” value ([3]; 100 ug/mL) was 0.07. The viability at 50 µg/mL ([4]; Homo sapiens, SK-OV-3, read-out: Average cell viability, SKOV, 50 ug/mL) was 52%, the viability at 100 µg/mL [4, 13] was 22% and the “Fold change in viability AVG” value ([4]; 50 ug/mL) was 0.56. For the same molecule, the “In vitro activity … SKOV AVG” value ([4]; 50 ug/mL) was 0.56, the “Fold change in viability AVG” value ([4]; 100 ug/mL) was 0.24 and the “In vitro activity … SKOV AVG” value ([4]; 100 ug/mL) was 0.24. The “Fold change in viability AVG” value ([5]; 50 ug/mL) was 0.70, the “In vitro activity … MDA-MB AVG” value ([5]; 50 ug/mL) was 0.70 and the “Fold change in viability AVG” value ([5]; 100 ug/mL) was 0.30. The “In vitro activity … MDA-MB AVG” value ([5]; 100 ug/mL) was 0.30, the viability at 50 µg/mL ([6]; Homo sapiens, PC-3, read-out: Average cell viability, PC3, 50 ug/mL) was 52% and the viability at 100 µg/mL [6, 14] was 15%. For the same molecule, the “Fold change in viability AVG” value ([6]; 50 ug/mL) was 0.54, the “In vitro activity … PC3 AVG” value ([6]; 50 ug/mL) was 0.54 and the “Fold change in viability AVG” value ([6]; 100 ug/mL) was 0.16. For the same molecule, the “In vitro activity … PC3 AVG” value ([6]; 100 ug/mL) was 0.16, the “Fold change in viability AVG” value ([7]; 50 ug/mL) was 0.85 and the “Fold change in viability AVG” value ([7]; 100 ug/mL) was 0.79. The viability at 72 h, 50 ug/mL ([8]; 50 ug/mL) was 78%, the viability at 72 h, 100 ug/mL [8] was 72% and the viability at 50 µg/mL ([9]; 50 ug/mL) was 64%. For the same molecule, the viability at 100 µg/mL [9] was 28%.
